According to US20160081986A1, “LONG-ACTING SPIRO-ISOXAZOLINE ANTIPARASITIC COMPOSITIONS” (priority 2013, published 2016):

Legend:
[1] = Franz diffusion cell screening (FDCS), flux and Kp; assay type: in vitro ADME, canine
Description: FDCS yields flux rates and permeation constants for the formulations through a fixed membrane (e.g., canine-, feline-, and bovine-skin).
Canine skin, stored at −20° C. for a maximum of 1 year, was thawed, trimmed, and dermatomed to give a thin layer of skin about 0.8-1.5 mm in thickness. The skin was mounted onto the Franz diffusion cell and equilibrated with the receptor media, 50:50 v/v % EtOH:Milli-Q water, for 2 to 4 hours. The receptor media was selected to provide sink conditions for Compound 1. Once equilibrated, test formulations were applied to the donor side, generally 50 μL/cm^2. Samples were generally obtained at 12, 24, 30, 36, 42, and 48 hours, but can be obtained at any six timepoints out to 72 hours. A control vehicle of with Compound 1 (250 mg/mL) in butyl digol:dimethyl isosorbide (90:10 v/v %) was included in every FDCS study.
Post experiment samples were stored at 4° C. until analysed for Compound 1 concentration by LCMS. Cumulative amount of Compound 1 in ng/cm^2 was calculated and plotted versus time. The gradient of straight line portion of the graph yields the flux value (ng/cm^2/hr) for a given formulation, FIG. 1. The flux can be divided by the applied concentration of Compound 1 to yield the permeability constant Kp (cm/hr)—often converted to a log 10 scale.

[2] = tested on: Rhipicephalus sanguineus ticks; test: Tick infested hair samples from treated dogs (contact activity); assay type: in vivo; conditions: for # Dead Ticks (mean): hair taken 26 days post dose, ten ticks per vial; for % Reduction: vs control
Description: (§1) The study assessed the efficacy of a 25 mg/kg (0.1 mL/kg) topical dose of Compound 1 versus control against fleas (Ctenocephalides felis) and ticks (Ixodes scapularis) on beagle dogs. The formulation was butyl digol:dimethyl isosorbide (90:10 v/v %), selected as it had excellent solubility for Compound 1. Eight male and eight female dogs were acclimated to the testing facility. On Day 0 of the study, each animal received a topical dose of Compound 1 or control (formulation without Compound 1). On Days 56, 89, 117, 145, and 173, animals were artificially infested with about 100 adult unfed fleas. Flea counts were conducted 24 hours post infestation. At each count, all fleas were removed from the dogs. On Days 55, 88, 116, 144, and 172, all dogs were infested with about 50 viable, unfed adult ticks. Tick counts were conducted 48 hours post infestation. At each count, all ticks were removed from the dogs. Further, some hair was removed from the left or right shoulder from three individual dogs from each treatment group 26 days post dose. The hair from each dog was equally divided and placed into two separate 20 mL scintillation vials. Ten female Rhipicephalus sanguineus and ten female Ixodes scapularis ticks were placed in the vials with the hair. Ticks were evaluated for viability at 2-4 hours, 24 hours, 48 hours and 72 hours post vial infestation.

Ixodes scapularis ticks = test: as above; assay type: in vivo; conditions: for # Dead Ticks (mean): hair taken 26 days post dose, ten ticks per vial; for % Reduction: vs control
Description: as §1

[3] = tested on: ticks (Ixodes scapularis); test: 6 Month PKPD study: efficacy against ticks on beagle dogs; assay type: in vivo; conditions: for Geometric mean live ticks (LT): dogs, 25 mg/kg topical on Day 0; for % Reduction live ticks: vs control
Description: (§2) The spiro-azetidine isoxazoline, (S)-1-(5′-(5-(3,5-dichloro-4-fluorophenyl)-5-(trifluoromethyl)-4,5-dihydroisoxazol-3-yl)-3′H-spiro[azetidine-3,1′-isobenzofuran]-1-yl)-2-(methylsulfonyl)ethanone (Compound 1) was used to conduct an in-vivo long-acting efficacy study.
as §1

[4] = Solubility of Compound 1 in the formulation; assay type: physicochemical; conditions: butyl digol:dimethyl isosorbide (90:10 v/v %)
Description: as §1

[5] = tested on: fleas (Ctenocephalides felis); test: 6 Month PKPD study: efficacy against fleas on beagle dogs; assay type: in vivo; conditions: for Geometric mean live fleas (LF): dogs, 25 mg/kg topical on Day 0; for % Reduction live fleas: vs control
Description: as §2, §1

[6] = 25 mg/kg topical, butyl digol and dimethyl isosorbide, for 5 months

SMILES: CS(=O)(=O)CC(=O)N1CC2(C1)OCc1cc(C3=NO[C@@](c4cc(Cl)c(F)c(Cl)c4)(C(F)(F)F)C3)ccc12 [Compound 1, (S)-1-(5′-(5-(3,5-dichloro-4-fluorophenyl)-5-(trifluoromethyl)-4,5-dihydroisoxazol-3-yl)-3′H-spiro[azetidine-3,1′-isobenzofuran]-1-yl)-2-(methylsulfonyl)ethanone]
- flux rates and permeation constants with increasing dimethyl isosorbide (FIG. 3) ([1]; 250 mg/mL, butyl digol:dimethyl isosorbide 90:10, 80:20, 60:40 v/v %): small reduction
- flux rates and permeation constants versus oleic acid level (FIG. 4) ([1]; 250 mg/mL, butyl digol:oleic acid 95:5, 90:10, 80:20 v/v %): increase with increasing oleic acid levels
- flux versus drug load (FIG. 2) ([1]; 50, 150 and 250 mg/mL in butyl digol:dimethyl isosorbide 90:10 v/v %): increased drug load correlates to increased flux
- # Dead Ticks (mean) ([2]; 2-4 hours post infestation): 0
- # Dead Ticks (mean) ([2]; 24 hours post infestation): 9.0
- # Dead Ticks (mean) ([2]; 48 hours post infestation): 9.3
- # Dead Ticks (mean) ([2]; 72 hours post infestation): 9.7
- % Reduction ([2]; 2-4 hours post infestation): 0.0%
- % Reduction ([2]; 24 hours post infestation): 100.0%
- % Reduction ([2]; 48 hours post infestation): 100.0%
- % Reduction ([2]; 72 hours post infestation): 100.0%
- duration of contact activity against ticks following the topical dose (Ixodes scapularis ticks; hair samples, I. scapularis and R. sanguineus): at least 26 days
- # Dead Ticks (mean) (Ixodes scapularis ticks; 2-4 hours post infestation): 0
- # Dead Ticks (mean) (Ixodes scapularis ticks; 24 hours post infestation): 3.7
- # Dead Ticks (mean) (Ixodes scapularis ticks; 48 hours post infestation): 7.3
- # Dead Ticks (mean) (Ixodes scapularis ticks; 72 hours post infestation): 9.3
- % Reduction (Ixodes scapularis ticks; 2-4 hours post infestation): 0.0%
- % Reduction (Ixodes scapularis ticks; 24 hours post infestation): 72.7%
- % Reduction (Ixodes scapularis ticks; 48 hours post infestation): 86.4%
- % Reduction (Ixodes scapularis ticks; 72 hours post infestation): 85.7%
- control of ticks (reduction in geometric mean counts vs placebo) [3, 6]: > 95%
- Geometric mean live ticks (LT) ([3]; 57 days): 0.0
- Geometric mean live ticks (LT) ([3]; 90 days): 0.0
- Geometric mean live ticks (LT) ([3]; 118 days): 0.1
- Geometric mean live ticks (LT) ([3]; 146 days): 0.3
- Geometric mean live ticks (LT) ([3]; 174 days): 4.5
- % Reduction live ticks ([3]; 25 mg/kg topical, 57 days): 100%
- % Reduction live ticks ([3]; 25 mg/kg topical, 90 days): 100%
- % Reduction live ticks ([3]; 25 mg/kg topical, 118 days): 99.1%
- % Reduction live ticks ([3]; 25 mg/kg topical, 146 days): 97.3%
- % Reduction live ticks ([3]; 25 mg/kg topical, 174 days): 64.3%
- solubility for Compound 1 [4]: excellent
- control of fleas (reduction in geometric mean counts vs placebo) [5, 6]: > 95%
- Geometric mean live fleas (LF) ([5]; 57 days): 0.2
- Geometric mean live fleas (LF) ([5]; 90 days): 0.0
- Geometric mean live fleas (LF) ([5]; 118 days): 0.9
- Geometric mean live fleas (LF) ([5]; 146 days): 0.8
- Geometric mean live fleas (LF) ([5]; 174 days): 13
- % Reduction live fleas ([5]; 25 mg/kg topical, 57 days): 98.6%
- % Reduction live fleas ([5]; 25 mg/kg topical, 90 days): 100%
- % Reduction live fleas ([5]; 25 mg/kg topical, 118 days): 98.6%
- % Reduction live fleas ([5]; 25 mg/kg topical, 146 days): 98.3%
- % Reduction live fleas ([5]; 25 mg/kg topical, 174 days): 74.3%
